Test results taken from paper PMC5761851, “Application of a phenotypic drug discovery strategy to identify biological and chemical starting points for inhibition of TSLP production in lung epithelial cells” (PLoS ONE, 2018).

Key:
Assay in all cases: kinase selectivity panel
Assay type in all cases: biochemical
JAK1 = target: T1, JAK1 (Homo sapiens, UniProt P23458); conditions: read-out: percentage of control activity (POC), JAK1
T1 construct: purchased Eurofins Pharma Discovery Services (KinaseProfiler; Cerep BioPrint panel)
T1 sequence (P23458 whole entry): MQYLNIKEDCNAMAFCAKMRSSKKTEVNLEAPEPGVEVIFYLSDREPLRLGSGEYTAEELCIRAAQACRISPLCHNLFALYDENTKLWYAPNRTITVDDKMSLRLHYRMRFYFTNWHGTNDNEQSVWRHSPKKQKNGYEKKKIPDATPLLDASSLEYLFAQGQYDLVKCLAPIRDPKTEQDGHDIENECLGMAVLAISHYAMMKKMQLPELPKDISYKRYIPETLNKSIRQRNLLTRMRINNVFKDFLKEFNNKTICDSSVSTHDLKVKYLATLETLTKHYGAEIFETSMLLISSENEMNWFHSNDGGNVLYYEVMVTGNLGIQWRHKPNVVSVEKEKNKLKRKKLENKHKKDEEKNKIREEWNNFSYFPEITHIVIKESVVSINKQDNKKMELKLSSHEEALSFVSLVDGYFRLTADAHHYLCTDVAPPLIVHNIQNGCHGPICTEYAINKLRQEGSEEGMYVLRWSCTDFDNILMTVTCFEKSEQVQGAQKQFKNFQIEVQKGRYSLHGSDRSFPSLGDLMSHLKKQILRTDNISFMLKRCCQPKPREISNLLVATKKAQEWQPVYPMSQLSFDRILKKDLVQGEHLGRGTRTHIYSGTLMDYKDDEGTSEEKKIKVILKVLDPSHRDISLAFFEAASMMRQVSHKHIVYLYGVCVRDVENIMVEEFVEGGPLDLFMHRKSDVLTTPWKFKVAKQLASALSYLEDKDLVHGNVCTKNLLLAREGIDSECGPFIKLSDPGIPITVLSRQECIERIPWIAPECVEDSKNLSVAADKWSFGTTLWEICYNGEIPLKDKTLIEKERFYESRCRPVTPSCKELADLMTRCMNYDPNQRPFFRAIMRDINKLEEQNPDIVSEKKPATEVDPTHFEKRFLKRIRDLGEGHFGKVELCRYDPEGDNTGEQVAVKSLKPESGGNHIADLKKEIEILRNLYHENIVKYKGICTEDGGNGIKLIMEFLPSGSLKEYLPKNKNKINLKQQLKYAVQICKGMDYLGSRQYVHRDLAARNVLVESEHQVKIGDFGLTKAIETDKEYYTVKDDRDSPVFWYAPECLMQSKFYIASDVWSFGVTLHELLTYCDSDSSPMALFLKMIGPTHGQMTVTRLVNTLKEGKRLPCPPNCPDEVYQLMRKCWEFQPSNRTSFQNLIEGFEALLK
Procedure, shortened: (§1)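 IC50 values derive from 9 duplicate concentrations, run only for activities picked after an initial 10 μM duplicate screen across 125 representative kinases.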

Itk = target: T2, Itk (Homo sapiens, UniProt Q08881); conditions: read-out: percentage of control activity (POC), Itk
T2 construct: purchased Eurofins Pharma Discovery Services (KinaseProfiler; Cerep BioPrint panel)
T2 sequence (Q08881 1-620): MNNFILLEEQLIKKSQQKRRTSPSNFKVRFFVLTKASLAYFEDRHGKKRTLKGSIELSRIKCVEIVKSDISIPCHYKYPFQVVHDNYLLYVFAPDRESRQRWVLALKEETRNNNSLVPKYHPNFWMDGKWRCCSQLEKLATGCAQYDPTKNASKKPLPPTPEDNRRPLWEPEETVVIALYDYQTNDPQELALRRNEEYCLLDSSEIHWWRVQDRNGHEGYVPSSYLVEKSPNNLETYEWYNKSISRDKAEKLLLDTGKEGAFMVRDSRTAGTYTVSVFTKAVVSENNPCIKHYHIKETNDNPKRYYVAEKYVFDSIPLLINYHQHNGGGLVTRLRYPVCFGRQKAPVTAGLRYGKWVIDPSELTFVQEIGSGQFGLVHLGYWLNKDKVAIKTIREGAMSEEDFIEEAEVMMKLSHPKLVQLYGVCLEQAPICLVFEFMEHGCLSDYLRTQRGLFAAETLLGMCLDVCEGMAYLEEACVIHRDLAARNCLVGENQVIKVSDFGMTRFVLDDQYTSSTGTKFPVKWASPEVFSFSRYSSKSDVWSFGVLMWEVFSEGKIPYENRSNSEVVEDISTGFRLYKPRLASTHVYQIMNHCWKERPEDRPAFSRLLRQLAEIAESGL
Procedure, shortened: as §1

CDK7/cyclinH/MAT1 = target: T3, CDK7/cyclinH/MAT1 (Homo sapiens, UniProt P50613); conditions: read-out: percentage of control activity (POC), CDK7/cyclinH/MAT1
T3 construct: purchased Eurofins Pharma Discovery Services (KinaseProfiler; Cerep BioPrint panel)
T3 sequence (P50613 whole entry): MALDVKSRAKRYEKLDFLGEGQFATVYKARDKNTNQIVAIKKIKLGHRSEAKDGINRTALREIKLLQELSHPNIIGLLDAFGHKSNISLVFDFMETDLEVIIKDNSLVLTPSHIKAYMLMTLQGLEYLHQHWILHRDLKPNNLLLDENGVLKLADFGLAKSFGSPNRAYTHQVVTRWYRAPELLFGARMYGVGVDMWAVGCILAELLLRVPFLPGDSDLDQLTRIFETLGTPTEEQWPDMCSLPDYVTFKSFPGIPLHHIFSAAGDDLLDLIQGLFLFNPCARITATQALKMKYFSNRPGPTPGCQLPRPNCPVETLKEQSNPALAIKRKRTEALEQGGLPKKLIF
T3 sequence (P51946 whole entry partner): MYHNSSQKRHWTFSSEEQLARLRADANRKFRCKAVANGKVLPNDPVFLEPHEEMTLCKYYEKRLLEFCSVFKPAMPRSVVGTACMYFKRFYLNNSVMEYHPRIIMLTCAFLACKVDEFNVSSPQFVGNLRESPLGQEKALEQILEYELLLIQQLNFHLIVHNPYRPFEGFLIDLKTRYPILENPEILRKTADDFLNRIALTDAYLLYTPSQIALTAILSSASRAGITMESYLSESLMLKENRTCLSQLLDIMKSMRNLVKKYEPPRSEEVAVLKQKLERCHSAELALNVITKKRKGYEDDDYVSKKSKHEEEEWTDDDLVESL
T3 sequence (P51948 whole entry partner): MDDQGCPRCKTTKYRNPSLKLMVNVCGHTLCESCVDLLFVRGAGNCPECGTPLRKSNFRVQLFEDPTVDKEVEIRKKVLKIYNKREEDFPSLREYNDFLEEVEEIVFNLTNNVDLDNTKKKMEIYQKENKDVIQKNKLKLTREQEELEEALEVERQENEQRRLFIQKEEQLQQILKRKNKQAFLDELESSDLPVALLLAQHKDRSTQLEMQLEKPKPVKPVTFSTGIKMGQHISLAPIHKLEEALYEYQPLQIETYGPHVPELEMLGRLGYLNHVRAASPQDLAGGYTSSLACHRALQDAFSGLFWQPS
Procedure, shortened: as §1

Abl = target: T4, Abl (Homo sapiens, UniProt P00519); conditions: read-out: percentage of control activity (POC), Abl
T4 construct: purchased Eurofins Pharma Discovery Services (KinaseProfiler; Cerep BioPrint panel)
T4 sequence (P00519 whole entry): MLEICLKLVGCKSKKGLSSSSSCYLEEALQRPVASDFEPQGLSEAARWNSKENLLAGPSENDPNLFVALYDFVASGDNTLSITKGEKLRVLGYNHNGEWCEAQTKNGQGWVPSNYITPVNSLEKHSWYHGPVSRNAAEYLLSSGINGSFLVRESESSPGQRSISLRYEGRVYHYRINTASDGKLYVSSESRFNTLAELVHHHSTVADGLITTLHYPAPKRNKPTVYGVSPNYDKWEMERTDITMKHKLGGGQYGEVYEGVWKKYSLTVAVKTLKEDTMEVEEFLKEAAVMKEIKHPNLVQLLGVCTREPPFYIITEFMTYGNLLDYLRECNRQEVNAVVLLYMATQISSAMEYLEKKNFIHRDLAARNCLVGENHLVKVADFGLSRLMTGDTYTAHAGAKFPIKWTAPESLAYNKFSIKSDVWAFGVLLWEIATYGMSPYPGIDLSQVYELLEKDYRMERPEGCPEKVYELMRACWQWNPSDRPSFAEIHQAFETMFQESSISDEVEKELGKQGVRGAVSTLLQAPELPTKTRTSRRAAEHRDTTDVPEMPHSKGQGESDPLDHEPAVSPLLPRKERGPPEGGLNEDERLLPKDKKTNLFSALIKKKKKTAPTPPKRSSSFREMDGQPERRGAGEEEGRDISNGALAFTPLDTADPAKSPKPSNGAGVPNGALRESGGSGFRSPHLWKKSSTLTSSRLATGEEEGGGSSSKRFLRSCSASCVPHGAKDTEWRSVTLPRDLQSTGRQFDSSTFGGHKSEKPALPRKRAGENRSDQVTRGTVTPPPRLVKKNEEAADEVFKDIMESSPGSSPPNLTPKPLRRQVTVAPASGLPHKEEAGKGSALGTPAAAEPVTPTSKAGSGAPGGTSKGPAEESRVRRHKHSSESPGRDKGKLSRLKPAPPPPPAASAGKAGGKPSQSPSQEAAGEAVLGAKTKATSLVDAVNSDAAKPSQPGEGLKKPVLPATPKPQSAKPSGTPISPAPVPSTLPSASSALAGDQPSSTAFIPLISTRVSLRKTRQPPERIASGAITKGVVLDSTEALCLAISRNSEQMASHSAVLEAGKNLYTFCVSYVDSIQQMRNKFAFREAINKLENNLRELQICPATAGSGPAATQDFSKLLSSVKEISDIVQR
Procedure, shortened: as §1

MuSK = target: T5, MuSK (Homo sapiens, UniProt O15146); conditions: read-out: percentage of control activity (POC), MuSK
T5 construct: purchased Eurofins Pharma Discovery Services (KinaseProfiler; Cerep BioPrint panel)
T5 sequence (O15146 24-869): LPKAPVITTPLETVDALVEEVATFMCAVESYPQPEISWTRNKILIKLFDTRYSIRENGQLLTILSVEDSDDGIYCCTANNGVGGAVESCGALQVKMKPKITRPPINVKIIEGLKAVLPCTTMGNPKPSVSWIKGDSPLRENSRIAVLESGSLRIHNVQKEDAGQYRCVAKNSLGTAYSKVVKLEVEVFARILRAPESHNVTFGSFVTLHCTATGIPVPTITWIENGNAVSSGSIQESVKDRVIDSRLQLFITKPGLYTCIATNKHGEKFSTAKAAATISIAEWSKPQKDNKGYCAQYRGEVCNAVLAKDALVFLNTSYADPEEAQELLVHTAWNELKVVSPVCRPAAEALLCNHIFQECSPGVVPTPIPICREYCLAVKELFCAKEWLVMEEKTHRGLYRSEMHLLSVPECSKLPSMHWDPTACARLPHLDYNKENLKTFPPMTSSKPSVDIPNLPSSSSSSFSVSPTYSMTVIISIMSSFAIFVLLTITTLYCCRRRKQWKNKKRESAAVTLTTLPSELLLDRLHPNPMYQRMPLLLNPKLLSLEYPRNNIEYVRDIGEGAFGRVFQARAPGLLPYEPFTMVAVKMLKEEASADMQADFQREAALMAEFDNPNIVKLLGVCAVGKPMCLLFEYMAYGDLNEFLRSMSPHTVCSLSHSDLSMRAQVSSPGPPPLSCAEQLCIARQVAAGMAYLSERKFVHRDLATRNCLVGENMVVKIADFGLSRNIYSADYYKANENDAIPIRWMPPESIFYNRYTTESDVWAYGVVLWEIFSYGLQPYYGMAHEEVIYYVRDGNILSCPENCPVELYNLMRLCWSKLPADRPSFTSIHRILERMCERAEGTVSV
Procedure, shortened: as §1

Flt1 = target: T6, Flt1 (Homo sapiens, UniProt P17948); conditions: read-out: percentage of control activity (POC), Flt1
T6 construct: purchased Eurofins Pharma Discovery Services (KinaseProfiler; Cerep BioPrint panel)
T6 sequence (P17948 27-1338): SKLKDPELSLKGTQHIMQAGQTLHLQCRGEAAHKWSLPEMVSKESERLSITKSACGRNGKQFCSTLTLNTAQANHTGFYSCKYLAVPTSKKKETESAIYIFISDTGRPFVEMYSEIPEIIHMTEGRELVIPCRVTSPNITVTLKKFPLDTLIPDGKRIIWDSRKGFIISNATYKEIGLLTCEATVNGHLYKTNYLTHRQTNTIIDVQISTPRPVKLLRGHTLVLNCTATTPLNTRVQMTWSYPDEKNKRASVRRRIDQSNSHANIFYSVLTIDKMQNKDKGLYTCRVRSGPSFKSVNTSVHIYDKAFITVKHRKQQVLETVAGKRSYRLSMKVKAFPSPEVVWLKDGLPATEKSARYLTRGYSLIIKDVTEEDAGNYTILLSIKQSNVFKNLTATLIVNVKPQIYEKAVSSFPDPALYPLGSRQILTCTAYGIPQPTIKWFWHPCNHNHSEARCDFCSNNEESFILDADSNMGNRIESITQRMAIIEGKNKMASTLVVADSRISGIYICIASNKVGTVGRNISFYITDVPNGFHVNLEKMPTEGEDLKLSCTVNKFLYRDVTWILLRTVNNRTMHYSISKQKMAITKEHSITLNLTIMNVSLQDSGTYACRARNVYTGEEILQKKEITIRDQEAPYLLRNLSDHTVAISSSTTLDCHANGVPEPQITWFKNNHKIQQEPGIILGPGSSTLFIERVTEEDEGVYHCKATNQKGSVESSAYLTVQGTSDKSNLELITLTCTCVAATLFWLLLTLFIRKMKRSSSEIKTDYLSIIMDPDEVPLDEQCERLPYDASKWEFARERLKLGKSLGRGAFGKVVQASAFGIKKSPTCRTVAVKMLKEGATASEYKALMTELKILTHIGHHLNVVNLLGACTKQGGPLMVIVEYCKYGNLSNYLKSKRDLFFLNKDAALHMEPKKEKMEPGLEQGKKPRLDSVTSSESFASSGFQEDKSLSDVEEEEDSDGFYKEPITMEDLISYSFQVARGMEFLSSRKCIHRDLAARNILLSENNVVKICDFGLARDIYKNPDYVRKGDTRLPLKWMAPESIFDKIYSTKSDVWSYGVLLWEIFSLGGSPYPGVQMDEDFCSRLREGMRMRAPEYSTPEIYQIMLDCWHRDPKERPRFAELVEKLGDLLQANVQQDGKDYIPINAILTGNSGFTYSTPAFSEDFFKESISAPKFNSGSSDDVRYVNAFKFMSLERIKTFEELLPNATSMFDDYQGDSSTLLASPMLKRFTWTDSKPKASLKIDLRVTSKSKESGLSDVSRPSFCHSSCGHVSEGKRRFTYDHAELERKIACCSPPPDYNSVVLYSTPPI
Procedure, shortened: as §1

ZAP-70 = target: T7, ZAP-70 (Homo sapiens, UniProt P43403); conditions: read-out: percentage of control activity (POC), ZAP-70
T7 construct: purchased Eurofins Pharma Discovery Services (KinaseProfiler; Cerep BioPrint panel)
T7 sequence (P43403 1-619): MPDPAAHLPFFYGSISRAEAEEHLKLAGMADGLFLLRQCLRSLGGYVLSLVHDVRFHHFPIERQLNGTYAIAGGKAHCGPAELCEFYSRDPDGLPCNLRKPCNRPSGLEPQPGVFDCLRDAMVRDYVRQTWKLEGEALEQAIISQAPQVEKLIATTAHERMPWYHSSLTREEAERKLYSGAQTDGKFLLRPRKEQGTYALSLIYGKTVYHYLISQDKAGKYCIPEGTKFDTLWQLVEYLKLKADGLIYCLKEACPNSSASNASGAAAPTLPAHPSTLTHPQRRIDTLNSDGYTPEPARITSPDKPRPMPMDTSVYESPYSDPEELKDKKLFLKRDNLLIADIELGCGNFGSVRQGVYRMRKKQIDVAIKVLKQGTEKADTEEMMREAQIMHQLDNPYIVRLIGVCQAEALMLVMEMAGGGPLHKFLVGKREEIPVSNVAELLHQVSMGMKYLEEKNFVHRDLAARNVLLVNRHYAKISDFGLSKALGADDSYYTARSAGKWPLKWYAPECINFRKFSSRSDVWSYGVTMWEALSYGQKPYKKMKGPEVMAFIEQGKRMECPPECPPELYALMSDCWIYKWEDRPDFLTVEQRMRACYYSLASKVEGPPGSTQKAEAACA
Procedure, shortened: as §1

| remaining activity at 10 µM (JAK1) [%] | remaining activity at 10 µM (Itk) [%] | remaining activity at 10 µM (CDK7/cyclinH/MAT1) [%] | remaining activity at 10 µM (Abl) [%] | remaining activity at 10 µM (MuSK) [%] | remaining activity at 10 µM (Flt1) [%] | remaining activity at 10 µM (ZAP-70) [%] | SMILES |
| --- | --- | --- | --- | --- | --- | --- | --- |
| 91 | 110 | 115 | 104 | 110 | 114 | 105 | CC(C)(C)N1CCC(c2cc(-c3ccc(F)cc3Cl)c3cc[n+]([O-])c(-c4c(Cl)cccc4Cl)c3n2)CC1 [compound 2] |
| 93 | 103 | 104 | 96 | 106 | 128 | 97 | Cc1ccc(C(=O)NCC2CC2)cc1-c1ccc2c(c1)NC(=O)C21CCCC1 [compound 3] |
| 101 | 114 | 101 | 50 | 104 | 80 | 104 | COc1c(NC(=O)c2ccc(C)c(-c3nnc4c(NCC(C)(C)C)nccn34)c2)cc(C(C)(C)C)cc1NS(C)(=O)=O [compound 7, reference compound] |

| SMILES | remaining activity at 10 µM (JAK1) [%] | remaining activity at 10 µM (Itk) [%] | remaining activity at 10 µM (CDK7/cyclinH/MAT1) [%] | remaining activity at 10 µM (Abl) [%] | remaining activity at 10 µM (MuSK) [%] | remaining activity at 10 µM (Flt1) [%] | remaining activity at 10 µM (ZAP-70) [%] |
| --- | --- | --- | --- | --- | --- | --- | --- |
| Cn1cc(-c2cccc(-c3nc(C(=O)NC4C5CC6CC4CC(O)(C6)C5)c(N)nc3N)c2)cn1 (centres unmarked) [compound 4] | 86 | 109 | 95 | 66 | 101 | 84 | 104 |
| CS(=O)(=O)N1CCN(c2ccc(Nc3ncc(C(N)=O)c(NC4CC4)n3)cc2)CC1 [compound 5] | -2 | 3 | 71 | 2 | 60 | -3 | 53 |
